Converted amounts (≈) assume the structure as drawn.
Key:
Enterococcus faecium = assay: Antibacterial activity against vancomycin-resistant Enterococcus faecium 628016.; format: functional
Enterococcus faecalis = assay: Antibacterial activity against vancomycin-sensitive Enterococcus faecalis 683026.; format: functional
Staphylococcus aureus [1] = assay: Antibacterial activity against methicillin-resistant Staphylococcus aureus 601053.; format: functional
Staphylococcus aureus [2] = assay: Antibacterial activity against methicillin-resistant Staphylococcus aureus 607004.; format: functional
Staphylococcus aureus [3] = assay: Antibacterial activity against methicillin-sensitive Staphylococcus aureus 601055.; format: functional
Staphylococcus aureus [4] = assay: Antibacterial activity against methicillin-sensitive Staphylococcus aureus 601055.(grown in the presence of blood); format: functional
Streptococcus pneumoniae = assay: Antibacterial activity against penicillin-resistant Streptococcus pneumoniae 671319; format: functional
[5] = test system: Staphylococcus haemolyticus; assay: Antibacterial activity against methicillin-resistant Staphylococcus haemolyticus 601117; format: functional
[6] = (§1) Compound was tested for its binding affinity against PBP2' receptor in Staphylococcus aureus.
[7] = In vitro binding affinity towards PBP2'' of Staphylococcus aureus using [14C]benzylpenicillin as radioligand
Staphylococcus aureus [8] = assay: Compound was tested for its binding affinity against PBP2'' receptor in Staphylococcus aureus. Values taken from literature.; format: functional
Staphylococcus aureus [9] = assay: as §1; format: functional, organism-based
Staphylococcus aureus [10] = assay: Compound was tested for its antibacterial activity against methicillin-resistant Staphylococcus aureus.; format: functional

SMILES | MIC (Enterococcus faecium) [µg/mL] | MIC (Enterococcus faecalis) [µg/mL] | MIC (Staphylococcus aureus [1]) [µg/mL] | MIC (Staphylococcus aureus [2]) [µg/mL] | MIC (Staphylococcus aureus [3]) [µg/mL] | MIC (Staphylococcus aureus [4]) [µg/mL] | MIC (Streptococcus pneumoniae) [µg/mL] | MIC [5] [µg/mL] | IC50 [6] [µg/mL] | IC50 [7] [µg/mL] | IC50 (Staphylococcus aureus [8]) [µg/mL] | IC50 (Staphylococcus aureus [9]) [µg/mL] | MIC (Staphylococcus aureus [10]) [µg/mL]
C[C@@H](O)[C@H]1C(=O)N2C(C(=O)O)=C(CSc3ccc4c(c3)CCC4=O)[C@H](C)[C@H]12 | 0.5 (≈ 1.29 µM) | 1 (≈ 2.58 µM) | 0.5 (≈ 1.29 µM) | 2 (≈ 5.16 µM) | 0.016 (≈ 0.0413 µM) | 0.008 | 0.03 (≈ 0.0774 µM) | 2 (≈ 5.16 µM) |  |  |  |  | 
C[C@@H](O)[C@H]1C(=O)N2C(C(=O)O)=C(COc3cccc4c3CCCC4=O)[C@H](C)[C@H]12 | 2 (≈ 5.19 µM) | 2 (≈ 5.19 µM) | 0.25 (≈ 0.649 µM) | 2 (≈ 5.19 µM) | 0.016 (≈ 0.0415 µM) | 0.008 | 0.06 (≈ 0.156 µM) | 4 (≈ 10.4 µM) |  |  |  |  | 
C[C@@H](O)[C@H]1C(=O)N2C(C(=O)O)=C(COc3cccc4c3C/C(=C\c3cccs3)C4=O)[C@H](C)[C@H]12 | 4 (≈ 8.59 µM) | 2 (≈ 4.3 µM) | 0.25 (≈ 0.537 µM) | 2 (≈ 4.3 µM) | 0.008 (≈ 0.0172 µM) | 0.008 | 0.03 (≈ 0.0644 µM) | 0.5 (≈ 1.07 µM) |  |  |  |  | 
C[C@@H](O)[C@H]1C(=O)N2C(C(=O)O)=C(COc3ccc4c(c3)CCC4)[C@H](C)[C@H]12 | 32 (≈ 89.5 µM) | 64 (≈ 179 µM) | 1 (≈ 2.8 µM) | 16 (≈ 44.8 µM) | 0.03 (≈ 0.0839 µM) | 8 | 1 (≈ 2.8 µM) | 16 (≈ 44.8 µM) |  |  |  |  | 
C[C@@H](O)[C@H]1C(=O)N2C(C(=O)O)=C(Sc3ccc4ccccc4c3)[C@H](C)[C@H]12 | 8 (≈ 21.7 µM) | 16 (≈ 43.3 µM) | 1 (≈ 2.71 µM) | 8 (≈ 21.7 µM) | 0.03 (≈ 0.0812 µM) | 0.03 | 2 (≈ 5.41 µM) | 8 (≈ 21.7 µM) |  |  |  |  | 
C[C@@H](O)[C@H]1C(=O)N2C(C(=O)O)=C(Sc3ccc(C#N)c4ccccc34)[C@H](C)[C@H]12 | 2 (≈ 5.07 µM) | 8 (≈ 20.3 µM) | 0.5 (≈ 1.27 µM) | 2 (≈ 5.07 µM) | 0.016 (≈ 0.0406 µM) | 0.016 | 0.25 (≈ 0.634 µM) | 1 (≈ 2.54 µM) |  |  |  |  | 
C[C@@H](O)[C@H]1C(=O)N2C(C(=O)O)=C(COc3cccc4c3CCC4=O)[C@H](C)[C@H]12 | 2 (≈ 5.39 µM) | 1 (≈ 2.69 µM) | 0.12 (≈ 0.323 µM) | 4 (≈ 10.8 µM) | 0.016 (≈ 0.0431 µM) | 0.008 | 0.06 (≈ 0.162 µM) | 8 (≈ 21.5 µM) |  |  |  |  | 
C[C@@H](O)[C@H]1C(=O)N2C(C(=O)[O-])=C(COc3ccc4nc(C[n+]5ccccc5)sc4c3)[C@H](C)[C@H]12 | 2 (≈ 4.3 µM) | 0.5 (≈ 1.07 µM) | 0.25 (≈ 0.537 µM) | 4 (≈ 8.59 µM) | 0.03 (≈ 0.0644 µM) | 0.016 | 0.06 (≈ 0.129 µM) | 2 (≈ 4.3 µM) |  |  |  |  | 
C[C@@H](O)[C@H]1C(=O)N2C(C(=O)[O-])=C(COc3ccc4cc(Cn5cc[n+](C)c5)ccc4c3)[C@H](C)[C@H]12 | 2 (≈ 4.33 µM) | 2 (≈ 4.33 µM) | 0.5 (≈ 1.08 µM) | 1 (≈ 2.17 µM) | 0.016 (≈ 0.0347 µM) | 0.016 | 0.06 (≈ 0.13 µM) | 2 (≈ 4.33 µM) |  |  |  |  | 
C[C@@H](O)[C@H]1C(=O)N2C(C(=O)O)=C(CSc3ccc4c(c3)OCCC4=O)[C@H](C)[C@H]12 | 0.5 (≈ 1.24 µM) | 1 (≈ 2.48 µM) | 1 (≈ 2.48 µM) | 1 (≈ 2.48 µM) | 0.03 (≈ 0.0744 µM) | 0.008 | 0.03 (≈ 0.0744 µM) | 1 (≈ 2.48 µM) |  |  |  |  | 
C[C@@H](O)[C@H]1C(=O)N2C(C(=O)O)=C(COc3ccc4cc(C(N)=O)ccc4c3)[C@H](C)[C@H]12 | 1 (≈ 2.44 µM) | 2 (≈ 4.87 µM) | 0.25 (≈ 0.609 µM) | 0.5 (≈ 1.22 µM) | 0.008 (≈ 0.0195 µM) | 0.016 | 0.03 (≈ 0.0731 µM) | 2 (≈ 4.87 µM) | > 16 | > 16 | 8 (≈ 19.5 µM) |  | 
C[C@@H](O)[C@H]1C(=O)N2C(C(=O)O)=C(SCCc3ccc4ccccc4c3)[C@H](C)[C@H]12 | 16 (≈ 40.3 µM) | 8 (≈ 20.1 µM) | 8 (≈ 20.1 µM) | 32 (≈ 80.5 µM) | 0.13 (≈ 0.327 µM) | 0.13 | 0.5 (≈ 1.26 µM) | 128 (≈ 322 µM) |  |  |  |  | 
C[C@@H](O)[C@H]1C(=O)N2C(C(=O)O)=C(COc3ccc4occ(CN(C)C)c(=O)c4c3)[C@H](C)[C@H]12 | 2 (≈ 4.52 µM) | 0.5 (≈ 1.13 µM) | 0.5 (≈ 1.13 µM) | 4 (≈ 9.04 µM) | 0.06 (≈ 0.136 µM) | 0.016 | 0.12 (≈ 0.271 µM) | 2 (≈ 4.52 µM) |  |  |  |  | 
C[C@@H](O)[C@H]1C(=O)N2C(C(=O)O)=C(CNC(=O)c3ccc4ccccc4c3)[C@H](C)[C@H]12 | 32 (≈ 81.1 µM) | 16 (≈ 40.6 µM) | 8 (≈ 20.3 µM) | 128 (≈ 325 µM) | 0.5 (≈ 1.27 µM) | 0.25 | 4 (≈ 10.1 µM) | 128 (≈ 325 µM) |  |  |  |  | 
C[C@@H](O)[C@H]1C(=O)N2C(C(=O)O)=C(COc3ccc4ccccc4c3)[C@H](C)[C@H]12 | 64 (≈ 174 µM) | 128 (≈ 348 µM) | 0.25 (≈ 0.68 µM) | 4 (≈ 10.9 µM) | 0.016 (≈ 0.0435 µM) | 32 | 4 (≈ 10.9 µM) | 2 (≈ 5.44 µM) |  |  |  |  | 
Cc1nc2ccc(SCC3=C(C(=O)O)N4C(=O)[C@H]([C@@H](C)O)[C@H]4[C@H]3C)cc2s1 | 8 (≈ 19.8 µM) | 2 (≈ 4.94 µM) | 2 (≈ 4.94 µM) | 4 (≈ 9.89 µM) | 0.03 (≈ 0.0742 µM) | 0.016 | 0.06 (≈ 0.148 µM) | 4 (≈ 9.89 µM) |  |  |  |  | 
C[C@@H](O)[C@H]1C(=O)N2C(C(=O)O)=C(SCc3ccc4ccccc4c3)[C@H](C)[C@H]12 | 8 (≈ 20.9 µM) | 2 (≈ 5.22 µM) | 1 (≈ 2.61 µM) | 1 (≈ 2.61 µM) | 0.06 (≈ 0.156 µM) | 0.03 | 0.06 (≈ 0.156 µM) | 2 (≈ 5.22 µM) |  | 9.5 (≈ 24.8 µM) | 2 (≈ 5.22 µM) | 9.5 (≈ 24.8 µM) | 
C[C@@H](O)[C@H]1C(=O)N2C(C(=O)O)=C(COc3ccc4occc(=O)c4c3)[C@H](C)[C@H]12 | 2 (≈ 5.19 µM) | 2 (≈ 5.19 µM) | 0.25 (≈ 0.649 µM) | 2 (≈ 5.19 µM) | 0.016 (≈ 0.0415 µM) | 0.016 | 0.03 (≈ 0.0778 µM) | 2 (≈ 5.19 µM) |  |  |  |  | 
C[C@@H](O)[C@H]1C(=O)N2C(C(=O)O)=C(CSc3ccc4ccccc4c3)[C@H](C)[C@H]12 | 128 (≈ 334 µM) | 128 (≈ 334 µM) | 0.5 (≈ 1.3 µM) | 4 (≈ 10.4 µM) | 0.016 (≈ 0.0417 µM) | 32 | 1 (≈ 2.61 µM) | 2 (≈ 5.22 µM) |  |  |  |  | 
C[C@@H](O)[C@H]1C(=O)N2C(C(=O)O)=C(SCCNC(=O)c3ccc4ccccc4c3)[C@H](C)[C@H]12 | 8 (≈ 18.2 µM) | 4 (≈ 9.08 µM) | 4 (≈ 9.08 µM) | 64 (≈ 145 µM) | 0.13 (≈ 0.295 µM) | 0.13 | 0.25 (≈ 0.568 µM) | 256 (≈ 581 µM) |  |  |  |  | 
C[C@@H](O)[C@H]1C(=O)N2C(C(=O)O)=C(CSc3ccc4ccccc4n3)[C@H](C)[C@H]12 | 1 (≈ 2.6 µM) | 4 (≈ 10.4 µM) | 0.13 (≈ 0.338 µM) | 4 (≈ 10.4 µM) | 0.016 (≈ 0.0416 µM) | 0.03 | 0.06 (≈ 0.156 µM) | 0.5 (≈ 1.3 µM) |  |  |  |  | 
C[C@@H](O)[C@H]1C(=O)N2C(C(=O)O)=C(Sc3cccc4ccccc34)[C@H](C)[C@H]12 | 32 (≈ 86.6 µM) | 16 (≈ 43.3 µM) | 1 (≈ 2.71 µM) | 8 (≈ 21.7 µM) | 0.06 (≈ 0.162 µM) | 0.06 | 1 (≈ 2.71 µM) | 8 (≈ 21.7 µM) |  |  |  |  | 
C[C@@H](O)[C@H]1C(=O)N2C(C(=O)O)=C(CSc3ccc4c(c3)CC(=O)N4C)[C@H](C)[C@H]12 | 8 (≈ 19.9 µM) | 4 (≈ 9.94 µM) | 4 (≈ 9.94 µM) | 8 (≈ 19.9 µM) | 0.12 (≈ 0.298 µM) | 0.06 | 0.25 (≈ 0.621 µM) | 16 (≈ 39.8 µM) |  |  |  |  | 
C[C@@H](O)[C@H]1C(=O)N2C(C(=O)O)=C(SCCNC=N)C[C@H]12 [IMIPENEM ANHYDROUS] | 4 (≈ 13.4 µM) | 2 (≈ 6.68 µM) | 8 (≈ 26.7 µM) | 64 (≈ 214 µM) | 0.03 (≈ 0.1 µM) | 0.015 | 0.12 (≈ 0.401 µM) | 64 (≈ 214 µM) |  | 430 (≈ 1440 µM) | 220 (≈ 735 µM) | 430 (≈ 1440 µM) | 128 (≈ 428 µM)
